Assay results reported in ChEMBL document CHEMBL3612018, “Discovery of a Potent and Selective ROMK Inhibitor with Pharmacokinetic Properties Suitable for Preclinical Evaluation” (ACS Med Chem Lett, 2015).

Key:
[1] = species: Rattus norvegicus; conditions: in vivo, po, 2 mg/kg
[2] = species: Rattus norvegicus; conditions: in vivo, iv, 1 mg/kg
[3] = in vivo; conditions: Sprague-Dawley, rat
[4] = in vivo; conditions: Sprague-Dawley, rat, po, 2 mg/kg
[5] = species: Rattus norvegicus; conditions: in vivo, iv, 0.5 mg/kg
[6] = in vivo; conditions: Sprague-Dawley, rat; remark: listed apart in the source

SMILES | AUC/dose [1] [µM·kg·h/mg] | half-life [3] [h] | bioavailability [4] [%] | clearance [5] [mL/min/kg] | half-life [6] [h] | clearance [2] [mL/min/kg]
O=C1OCc2cc(CCN3CCN(C(=O)Cc4ccc(-n5cnnn5)cc4)CC3)ccc21 | 0.34 | – | – | – | – | 40
COc1cc(CCN2CCN(CC(O)c3ccc4c(c3C)COC4=O)CC2)ccc1C#N (stereo not drawn) | 0.46 | 0.83 | 39 | 33 | – | –
Cc1nc(C(O)CN2CCN(C[C@H](O)c3ccc4c(c3C)COC4=O)CC2)ccc1C#N (stereo in doubt; 35) | 1.3 | – | 81 | – | 1.4 | 25

Now from value to molecule, other results behind:

AUC/dose [1] [µM·kg·h/mg] | half-life [3] [h] | bioavailability [4] [%] | clearance [5] [mL/min/kg] | half-life [6] [h] | SMILES | clearance [2] [mL/min/kg]
0.35 | 1.3 | 37 | 40 | – | COc1cc(C(O)CN2CCN(CCc3ccc4c(c3C)COC4=O)CC2)ccc1C#N (stereo not drawn) | –
0.74 | 1.5 | 78 | 40 | – | COc1cc(C(O)CN2CCN(CCc3ccc4c(c3C)COC4=O)CC2)ncc1C#N (stereo not drawn) | –
